Usually stoichiometry N stands for a count of units in the complex or per binding partner.

From PMC10374108, “Structural and biochemical characterization of the key components of an auxin degradation operon from the rhizosphere bacterium Variovorax” (PLOS Biology, 2023) come the findings set out here.

Where “and” joins values, the source holds several entries; their conditions need not be identical. Identical values can stand only once. Like-named read-outs stand apart in the source and are kept apart here. A value given as a limit tells only on which side of the number the result lay.

Assay [1] concerns the target IadK2 (Variovorax paradoxus, UniProt T1X8R6). Briefly: ITC, auxins binding to IadK2. Here is the method:
(§1) ITC experiments were performed using a MicroCal PEAQ-ITC system (Malvern). All the experiments were performed at […] in a buffer containing 25 mM Tris-HCl (pH 7.5) and 150 mM NaCl (unless otherwise stated). […] Data was analyzed using the MicroCal PEAQ-ITC analysis software. All the measurements were repeated at least 2 times.
A general note: Isothermal titration calorimetry measures the heat released or taken up as one component is titrated into another.

Assay [2] relates to IadD/E-IadC dioxygenase system. The assay can be described thus: In vitro IAA and analogs transformation assay, IadC + IadD/E. In kind it is biochemical, Variovorax paradoxus CL14. The settings on record: normalised, replicates. As for the experimental part:
The reaction mixture was composed of 100 mM Tris-HCl (pH7.5), 250 μM reduced NADH, 10 μM ammonium iron (II) sulfate, and 3 μM of each enzyme component. […] The mixture was vortexed periodically to introduce oxygen for the reaction and was boiled to stop the reaction. After pelleting the precipitants, the supernatant was collected and mixed with 2 volumes of Salkowski reagent made of 0.5 M ferric chloride and 35% perchloric acid for the quantification of residual substrate by measuring the adsorption at 530 nm.

In assay [3] the target is IadK3 (Variovorax paradoxus, UniProt A0A0H2LZ84). The assay can be described thus: ITC, auxins binding to IadK3. Also on record: species or system Variovorax paradoxus CL14. As for the experimental part: as §1
Chain of IadK3 (A0A0H2LZ84 entry or part of it): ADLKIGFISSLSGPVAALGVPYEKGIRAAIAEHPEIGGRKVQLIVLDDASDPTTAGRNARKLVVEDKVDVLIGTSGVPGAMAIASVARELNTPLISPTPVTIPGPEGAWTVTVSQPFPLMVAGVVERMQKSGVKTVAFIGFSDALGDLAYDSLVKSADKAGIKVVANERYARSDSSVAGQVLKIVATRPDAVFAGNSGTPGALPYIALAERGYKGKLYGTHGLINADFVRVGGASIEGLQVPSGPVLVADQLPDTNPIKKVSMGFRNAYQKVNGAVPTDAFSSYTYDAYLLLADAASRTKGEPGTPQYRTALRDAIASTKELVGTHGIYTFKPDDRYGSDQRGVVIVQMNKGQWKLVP
Assay [4] concerns the target IadD (Variovorax paradoxus CL14). Briefly: cryo-EM structure; purified IadD/E complex with 20-fold molar excess of IAA, 2.6 Å (2.59 Å), C3 symmetry.
For assay [5], the target named is IadE (Variovorax paradoxus CL14). Briefly: SEC; co-expressed IadD/E complex purified by cation exchange, 20 mg/ml, HiLoad 200 column, 25 mM Tris-HCl pH 7.5, 150 mM NaCl, 2 mM DTT; peak fractions on SDS-PAGE. For orientation: In gel filtration, larger molecules generally elute earlier.
For assay [6] the target is unchanged. The assay can be described thus: cryo-EM structure; purified IadD/E complex with 20-fold molar excess of IAA, 2.6 Å (2.59 Å), C3 symmetry.
Where [7] appears, read: ITC, single-phase isotherm, auxin analogs to IadK2, mean ± SEM, read-out: KD.
Setting [8] is: IadK2, ITC, replicates, read-out: Kd.

Chain of IadK2 (T1X8R6 entry or part of it): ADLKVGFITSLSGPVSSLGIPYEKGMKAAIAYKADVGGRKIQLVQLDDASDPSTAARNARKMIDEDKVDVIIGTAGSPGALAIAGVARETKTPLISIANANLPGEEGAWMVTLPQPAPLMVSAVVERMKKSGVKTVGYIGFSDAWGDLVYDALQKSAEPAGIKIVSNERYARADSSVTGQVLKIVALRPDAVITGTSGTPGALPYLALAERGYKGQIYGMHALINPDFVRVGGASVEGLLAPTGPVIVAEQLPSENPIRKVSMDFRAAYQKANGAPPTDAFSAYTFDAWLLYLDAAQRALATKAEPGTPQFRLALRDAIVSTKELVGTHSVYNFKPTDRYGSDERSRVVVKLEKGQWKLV

Take `O=C(O)COc1ccc(Cl)cc1Cl` [2,4-D, 2,4-dichlorophenoxyacetic acid]: the Kd is more than 100 µM in assay [1] (ITC, single-phase isotherm, auxin analogs to IadK2, mean ± SEM) and more than 100 µM in assay [1] (IadK2, ITC, replicates).
Consider `O=C(O)Cc1c[nH]c2cccc(Cl)c12` [4-Cl-IAA, 4-chloroindole-3-acetic acid], for which, in assay [1] (setting [7]), the Kd was 15.2 ± 6.8 µM. For the same molecule, in assay [1] (setting [8]), the Kd was 7 µM and 23.8 µM and 15 µM. Also, in assay [2], the “relative substrate level after reaction” value was 0.2122 and 0.2346 and 0.1886; the “relative substrate level before reaction” value is 1 and 0.9732 and 0.9831.
For `O=C(O)Cc1c[nH]c2ccc(O)cc12` [5-HIAA, 5-hydroxy indole-3-acetic acid], in assay [2], the “relative substrate level after reaction” value is 0.2661 and 0.2238 and 0.1936; the “relative substrate level before reaction” value is 1 and 1.014 and 0.9931.
Regarding `O=C(O)CCCc1c[nH]c2ccccc12` [IBA, indole-3-butyric acid], in assay [1] (setting [7]), the Kd worked out at 18 ± 7 µM. Besides, the Kd in assay [1] (setting [8]) is 28 µM and 11 µM and 16 µM. Besides, in assay [2], the “relative substrate level after reaction” value was 1.033 and 0.9962 and 0.976; the “relative substrate level before reaction” value was 1 and 1.003 and 0.9923.
With `O=C(O)CCc1c[nH]c2ccccc12` [IPA, indole-3-propionic acid], the Kd in assay [1] (setting [7]) is 1.4 ± 0.2 µM; in assay [1] (setting [8]) it was 1.6 µM and 1.2 µM and 1.5 µM. In addition, the “relative substrate level after reaction” value in assay [2] was 0.9755 and 1.034 and 0.9864. The “relative substrate level before reaction” value in assay [2] was 1 and 1.004 and 1.006.
In the case of `O=C(O)Cc1cccc2ccccc12` [NAA, 1-naphthylacetic acid], the Kd was 17 ± 2.2 µM in assay [1] (setting [7]); 15 µM and 16 µM and 20 µM in assay [1] (setting [8]).
With `O=C(O)Cc1ccccc1` [PAA, phenylacetic acid], the “binding to IadK2 (ITC)” value in assay [1] (result in words) was “no binding”. Also, the Kd is more than 100 µM in assay [3] and more than 100 µM in assay [3] (read-out: ITC binding, IadK3, ITC, replicates). The “binding to IadK3 (ITC)” value in assay [3] (result in words) is listed as “no binding detected”.
`O=C(O)CC1C(=O)Nc2ccccc21` (centres unmarked) [oxIAA, 2-oxindole-3-acetic acid]: in assay [3] (result in words, method not stated), the “association with IadK3” value is listed as “weakly associate”.
The molecule IadD (enzyme) returned a stoichiometry N in assay [4] of 3. Besides, the stoichiometry N (IadD:IadE molar ratio) in assay [5] was determined as 1.
In the case of IadE (enzyme), the stoichiometry N in assay [6] came out at 3.
